Measurements from US8664289B2, “Dye and coloring photosensitive composition” (Adeka Corporation, priority 2010, dated 2014).

Assays:
Assay type in all cases: physicochemical
[1] = Evaluation of heat resistance by TG-DTA; details: temperature at 10% weight loss
Procedure: Compounds Nos. 1 to 7, 16, 26, 43, 52 to 62, 65, 66, 69, 70 and 94 to 102 and Comparative Compounds Nos. 1 and 2 obtained above were analyzed by TG-DTA, and the melting points and temperatures at 10% weight loss were measured. The results are shown in [Table 6].

Solubility in PGMEA = details: concentration when PGMEA was added dropwise to 0.1 g of the compound under stirring and was dissolved completely
Procedure: (§1) That the obtained solid was an intended product was confirmed by ^1H-NMR and IR. Furthermore, the solubility of the obtained compound was measured. The solubility was a concentration when PGMEA was added dropwise to 0.1 g of the compound under stirring and was dissolved completely. The results thereof are shown in [Table 1] to [Table 4].
as §1, with “added” for “added dropwise”, “while” for “under”, “4]” for “4].”

[2] = Heat resistance of exposed coating film of coloring alkali-developable photosensitive composition; details: for Relative intensity After exposure: coating film after exposure (150 mJ/cm^2), before heating; for λmax: coating film of composition containing the compound, on glass; for Relative intensity 230° C., 30 min: exposed coating film after 230° C.
Source text: 30.33 g of ACA Z250 (manufactured by Daicel Cytec Company Ltd.) and 11.04 g of ARONIX M-450 (manufactured by Toagosei Co., Ltd.) as the component (B), 1.93 g of IRGACURE 907 (manufactured by BASF) as the component (C), 36.60 g of PGMEA and 20.08 g of cyclohexanone as the component (E), as well as 0.01 g of FZ2122 (manufactured by Dow Corning Toray Co., Ltd.) as other component were mixed and stirred until insoluble components were diminished to give Alkali-developable photosensitive composition No. 1.
1.90 g of dimethylacetamide was added to 0.10 g of Compound No. 1 obtained above as the component (A) and dissolved under stirring.
5.0 g of Alkali-developable photosensitive composition No. 1 obtained in Step 1 and 1.0 g of Dye liquid No. 1 obtained in Step 2 were mixed and stirred to homogeneous to give Coloring alkali-developable photosensitive composition No. 1 of the present invention.
Coloring alkali-developable photosensitive compositions Nos. 2 to 20 were obtained in a similar manner to that in Example 2-1, except that Compound No. 1 as the component (A) in Step 2 of Example 2-1 was changed to Compound No. 2, 3, 5, 6, 16, 53, 56, 57, 59, 60, 65, 66, 94 or 96 to 101 obtained above.
Comparative coloring alkali-developable photosensitive compositions Nos. 1 and 2 were obtained in a similar manner to that in Example 2-1, except that Compound No. 1 as the component (A) in Step 2 of Example 2-1 was changed to Comparative Compound No. 1 or 2.
The coloring alkali-developable photosensitive compositions obtained in Example 2 were each applied to a glass basal plate under a condition of 410 rpm×7 sec and dried (90° C., 90 sec) on a hot plate. The obtained coating film was exposed (150 mJ/cm^2) by using an ultrahigh pressure mercury lamp. The heat resistance of the exposed coating film was investigated under conditions of 180° C.×60 min and 230° C.×30 min. The results are shown in [Table 7].
Using the coloring alkali-developable photosensitive compositions obtained in Examples 2-2 to 2-20 and Comparative Examples 2-1 and 2-2, heat resistance was investigated in a similar manner to that in Evaluation Example 3. The results are shown in [Table 7].

[3] = Evaluation of absorption wavelength property in CHCl3 solution; set-up: ε: unit not given here; details: for ε: molar absorption coefficient
Source text: The absorption wavelength properties of Compounds Nos. 1 to 7, 16, 26, 43, 52 to 62, 65, 66, 69, 70 and 94 to 102 and Comparative Compounds Nos. 1 and 2 obtained above were each evaluated in a CHCl3 solution. The results are shown in [Table 5].

| SMILES | 10% weight loss [1] [°C] | Solubility (PGMEA) (Solubility in PGMEA) | Relative intensity After exposure [2] | λmax [2] [nm] | Relative intensity 230° C., 30 min [2] | λmax [3] [nm] | ε [3] |
| --- | --- | --- | --- | --- | --- | --- | --- |
| CCN(CC)c1ccc(/C=C(\C#N)C(=O)OCCOC(=O)/C(C#N)=C/c2ccc(N(CC)CC)cc2)cc1 [Compound No. 1] | 318 | 0.5 wt % | 100 | 418 | 99.4 | 436 | 107000 |
| CCN(CC)c1ccc(/C=C(\C#N)C(=O)Oc2ccc(C(C)(C)c3ccc(OC(=O)/C(C#N)=C/c4ccc(N(CC)CC)cc4)cc3)cc2)cc1 [Compound No. 6] | 322 | 0.9 wt % | 100 | 442 | 99.9 | 440 | 132000 |
| CCN(CC)c1ccc(/C=C(\C#N)C(=O)OCC(COC(=O)/C(C#N)=C/c2ccc(N(CC)CC)cc2)(COC(=O)/C(C#N)=C/c2ccc(N(CC)CC)cc2)COC(=O)/C(C#N)=C/c2ccc(N(CC)CC)cc2)cc1 [Compound No. 16] | 328 | 1.8 wt % | 100 | 438 | 99.7 | 439 | 210000 |
| CCN(CC)c1ccc(/C=C(\C#N)C(=O)Oc2ccc(-c3nc(-c4ccc(OC(=O)/C(C#N)=C/c5ccc(N(CC)CC)cc5)cc4)nc(-c4ccc(OC(=O)/C(C#N)=C/c5ccc(N(CC)CC)cc5)cc4)n3)cc2)cc1 [Compound No. 26] | 321 | 1.0 or less wt % |  |  |  | 447 | 210000 |
| CCN(CC)c1ccc(/C=C(\C#N)C(=O)OCCCOC(=O)/C(C#N)=C/c2ccc(N(CC)CC)cc2)cc1 [Compound No. 3] | 329 | 0.4 wt % | 100 | 433 | 99.4 | 435 | 104000 |
| CCN(CC)c1ccc(/C=C(\C#N)C(=O)OCCCCCCCOC(=O)/C(C#N)=C/c2ccc(N(CC)CC)cc2)cc1 [Compound No. 5] | 348 | 2.0 wt % | 100 | 431 | 99.5 | 430 | 110000 |
| CCOC(=O)/C(C#N)=C/c1ccc(N(CC)CC)cc1 [Comparative Compound No. 1, reference compound] | 259 |  |  |  |  | 430 | 54900 |
| CCN(CC)c1ccc(/C=C(\C#N)C(=O)Oc2ccc(C3(c4ccc(OC(=O)/C(C#N)=C/c5ccc(N(CC)CC)cc5)cc4)CCCCC3)cc2)cc1 [Compound No. 52] | 322 | 0.6 wt % |  |  |  | 441 | 121000 |
| CCN(CC)c1ccc(/C=C(\C#N)C(=O)NCCCCCCNC(=O)/C(C#N)=C/c2ccc(N(CC)CC)cc2)cc1 [Compound No. 7] | 352 | 0.2 wt % |  |  |  | 432 | 99600 |
| CC(COC(=O)/C(C#N)=C/c1ccc(N2CCOCC2)cc1)OC(=O)/C(C#N)=C/c1ccc(N2CCOCC2)cc1 (centres unmarked) [Compound No. 43] | 318 | 1.0 or less wt % |  |  |  | 408 | 62800 |
| CCN(CC)c1ccc(/C=C(\C#N)C(=O)OCCCCCOC(=O)/C(C#N)=C/c2ccc(N(CC)CC)cc2)cc1 [Compound No. 4] | 335 | 0.6 wt % |  |  |  | 431 | 110000 |
| CCOCCOC(=O)C(C#N)=C(C)c1ccc(N(CC)CC)cc1 [Comparative Compound No. 2, reference compound] | 252 |  |  |  |  | 432 | 57200 |
| CCOCCOC(=O)/C(C#N)=C/c1ccc(N(CC)CC)cc1 [Comparative Compound No. 2, reference compound] |  |  | 100 | 433 | 24.0 |  |  |

Continued, values first:

| 10% weight loss [1] [°C] | Solubility (PGMEA) (Solubility in PGMEA) | Relative intensity After exposure [2] | λmax [2] [nm] | Relative intensity 230° C., 30 min [2] | λmax [3] [nm] | ε [3] | SMILES |
| --- | --- | --- | --- | --- | --- | --- | --- |
| 334 | 5.6 wt % | 100 | 430 | 99.9 | 436 | 160000 | CCN(CC)c1ccc(/C=C(\C#N)C(=O)OCC(C)(COC(=O)/C(C#N)=C/c2ccc(N(CC)CC)cc2)COC(=O)/C(C#N)=C/c2ccc(N(CC)CC)cc2)cc1 [Compound No. 56] |
| 354 | 1.0 or less wt % |  |  |  | 428 | 90500 | CCN(CC)c1ccc(/C=C(\C#N)C(=O)NCC(C)NC(=O)/C(C#N)=C/c2ccc(N(CC)CC)cc2)cc1 (centres unmarked) [Compound No. 54] |
| 366 | 1.0 or less wt % |  |  |  | 409 | 89900 | CC(=O)OCCN(CCOC(C)=O)c1ccc(/C=C(\C#N)C(=O)OCCCCCCCOC(=O)/C(C#N)=C/c2ccc(N(CCOC(C)=O)CCOC(C)=O)cc2)cc1 [Compound No. 62] |
| 334 | 10.0 wt % | 100 | 417 | 98.2 | 417 | 103000 | CCN(CC)c1ccc(/C=C(\C#N)C(=O)OCC(C)(COC(=O)/C(C#N)=C/c2ccc(N3CCOCC3)cc2)COC(=O)/C(C#N)=C/c2ccc(N3CCOCC3)cc2)cc1 [Compound No. 97] |
| 354 | 7.5 wt % |  |  |  | 440 | 125000 | CCCCN(CCCC)c1ccc(/C=C(\C#N)C(=O)OCC(C)(COC(=O)/C(C#N)=C/c2ccc(N(CCCC)CCCC)cc2)COC(=O)/C(C#N)=C/c2ccc(N(CCCC)CCCC)cc2)cc1 [Compound No. 102] |
| 336 | 1.0 or less wt % |  |  |  | 448 | 107000 | CCCCN(CCCC)c1ccc(/C=C(\C#N)C(=O)Oc2ccc(C(c3ccc(OC(=O)/C(C#N)=C/c4ccc(N(CCCC)CCCC)cc4)cc3)(C(F)(F)F)C(F)(F)F)cc2)cc1 [Compound No. 69] |
| 351 | 1.0 or less wt % |  |  |  | 420 | 80500 | CCN(CCC#N)c1ccc(/C=C(\C#N)C(=O)OCCCCCCOC(=O)/C(C#N)=C/c2ccc(N(CC)CCC#N)cc2)cc1 [Compound No. 58] |
| 324 | 1.0 or less wt % |  |  |  | 453 | 135000 | CCCCN(CCCC)c1ccc(/C=C(\C#N)C(=O)Oc2ccc(S(=O)(=O)c3ccc(OC(=O)/C(C#N)=C/c4ccc(N(CCCC)CCCC)cc4)cc3)cc2)cc1 [Compound No. 70] |
| 350 | 1.0 or less wt % |  |  |  | 423 | 90800 | CN(C)c1ccc(/C=C(\C#N)C(=O)OCCCCCCCCCCOC(=O)/C(C#N)=C/c2ccc(N(C)C)cc2)cc1 [Compound No. 61] |
| 323 | 1.0 or less wt % |  |  |  | 427 | 84600 | CC(COC(=O)/C(C#N)=C/c1ccc(N(C)C)cc1)OC(=O)/C(C#N)=C/c1ccc(N(C)C)cc1 (centres unmarked) [Compound No. 55] |
